According to article PMC5494507, “γ‐Secretase inhibitors in cancer clinical trials are pharmacologically and functionally distinct” (EMBO Molecular Medicine, 2017):

Experiments:
NOTCH1 = test: Endogenous NOTCH1 cleavage inhibition in MDA-MB-231 cells (NICD Western blot after EDTA activation); assay type: cell-based; conditions: for NICD levels at 100 nM: MDA-MB-231, 100 nM
Experimental: To extend the study to a more physiological system, we assessed endogenous NOTCH1 cleavage inhibition using the triple‐negative breast cancer line MDA‐MB‐231 (Fig 6A). Full‐length blots are shown in source data for Fig 6. NOTCH1 cleavage was detected by Western blotting using the Cell Signaling neo‐epitope NICD antibody. […] The inhibition of endogenous APP in MDA‐MB‐231 cells was also tested by detecting accumulation of APP COOH‐terminal fragments (APP‐CTFs). […] Figure 6D summarized the APP‐CTF band intensities normalized for DMSO group. The original blots are available in source data for Fig 6.
Short‐term endogenous NOTCH1 cleavage inhibition was tested in the triple‐negative breast cancer cell lines MDA‐MB‐231 (ATCC, Manassas, VA). Cells were plated in 60 mm dishes and maintained as monolayer cultures in DMEM medium supplemented with 10% FBS, 1% penicillin/streptomycin, 1% L‐glutamine (Life Technologies), and incubated at 37°C in a humidified 5% CO2 incubator. After the cells reached ~75% confluency, cultures were pretreated with GSIs for 1 h in DMEM at 37°C in a 5% CO2 incubator. GSIs were tested at concentrations of 0, 0.1, 0.5, 2.5, and 12.5 μM. Then, EDTA (5 mM, Life Technologies) was added to the cell cultures to induce Notch activation for 5 min. Following incubation, cell extracts were prepared by lysing cells in RIPA buffer (Santa Cruz Biotechnology) containing protease and phosphatase inhibitors. Western blotting was performed using Cleaved NOTCH1 (Val1744) antibody (Cell Signaling) with β‐actin (Santa Cruz Biotechnology) as loading control. Band intensities were normalized for actin using ImageJ Software (NIH, USA).
(§1) Sandwich ELISAs used for Aβ detection were performed as previously described (Murphy et al, 1999; Ran et al, 2014). Briefly, Aβ and Aβ‐like peptides in conditioned media were captured with Ab5 antibody and detected with horseradish peroxidase labeled mAb 4G8 (Biolegend). Synthetic Aβ1‐40 was used as standard. All ELISAs were developed with TMB substrate (KPL, Gaithersburg, Maryland, USA). Bis‐Tris precast gels (Biorad, Hercules, CA, USA) were used for all SDS–PAGE. Monoclonal anti‐FLAG M2 antibody (Sigma) and Aβ1‐16 antibody 6E10 (Covance) were used for Western blotting at 1:1,000 dilution. Anti‐CD74 In‐1 antibody (BD Bioscience, San Jose, CA, USA) was used for A20 cell lysate Western blotting at dilution of 1:1,000. MDA‐MB‐231 cell extracts were prepared by lysing cells in RIPA buffer containing protease and phosphatase inhibitors. The lysates were kept on ice for 30 min and vortexed every 10 min, and then centrifuged at 4°C for 10 min at 1,000 g. The supernatants were collected, and protein concentrations were determined by Bradford Assay. Pan‐NOTCH1 antibody (C‐20) (Santa Cruz Biotechnology) and cleaved NOTCH1 (Val1744) antibody ([…]) were used at 1:500 and 1:100 dilution in the test of endogenous NOTCH1 inhibition with β‐actin expression used as loading control. β‐actin antibody was used at 1:1,000 dilution (Sigma). Band intensities normalized for actin using densitometry analysis with ImageJ Software (NIH, USA).

SPPL2a, SPPL2b, and SPP = test: Cell-based SPPLs cleavage assay, HEK 293t cells co-transfected with FBA and SPPLs (ELISA); conditions: 1 μM, HEK 293t co-transfected with SPPLs and FBA
Experimental: It is known that SPP/SPPLs can be inhibited by select GSIs (Ran et al, 2015). Here, we tested the effect of various GSIs on the SPP/SPPL family members SPPL2a, SPPL2b, and SPP. We co‐transfected SPPLs with the BRI2 based chimeric SPP/SPPL substrate that we have referred to as FBA into HEK 293t cells. SPPL‐specific inhibitor (ZLL)2‐ketone was used as positive control. DAPT was not tested here as we and others have previously reported it had no effect on SPP activity at concentration up to 100 μM (Weihofen et al, 2003). […] Dose responses of BMS‐906024, RO4929097, and PF‐3084014 were performed with a similar strategy, but a stable SPPL2b/FBA overexpressing HEK 293 cell line was used instead of transient transfection (Fig 8B). […] Table 3 compares the GSIs’ potencies on γ‐secretase and SPPL2b. The average of IC50s on cNOTCH1sub, cNOTCH2sub, cNOTCH4sub, and APP was used as the GSI's potency on γ‐secretase.
SPPL2a, SPPL2b, SPP, and chimeric substrate FBA were generated as previously described (Ran et al, 2015). A20 cells (TIB‐208; ATCC, Manassas, VA, USA) were cultured in RPMI‐1640 medium (ATCC) supplied with 10% fetal bovine serum, 1% penicillin/streptomycin, and 0.05 mM 2‐mercaptoethanol (Life Technologies). Various concentrations of GSIs and (ZLL)2‐ketone as indicated in figures were applied to transfected HEK 293t cells at 70–90% confluence or A20 cells at a density of 5 × 10^5 cells/ml with fresh media in 48‐well format for 16 h. Cells and conditioned media were used for WB, IP, and ELISA.
as §1

cNOTCH1sub = test: Cell-based γ-secretase cleavage assay, cNOTCH1sub in H4 cells (Aβ-like peptide ELISA); parameters: species or system human; conditions: Aβ-like peptide in media, GSI overnight
Experimental: (§2) Using these cell‐based γ‐secretase cleavage assays, we systematically investigated the substrate inhibition profile of BMS‐906024, MK‐0752, PF‐308414, RO4929097, Semagacestat, and DAPT. We treated H4 cells stably expressing cNOTCH1‐4sub with 4 pM to 10 μM of GSIs (Fig 5A and Table 2) and measured the Aβ‐like peptide secreted into the media.
(§3) For the cell‐based assay, all substrates contain a human NOTCH4 signal peptide sequence ([…]), amyloid β peptide (Aβ1–25/K16A) epitope tag followed by the juxtamembrane region (JMD) of the given substrate and a FLAG tag ([…]) at the COOH‐terminal. K16A mutant was created to decrease potential α‐secretase cleavage. The cDNAs were generated by gene synthesis conducted by Genscript. A schematic representation of the substrates is provided in Fig 4A, and sequences of the cDNAs and the proteins are provided in Appendix Fig S6. For clarity, these substrates are referred to as cell‐based assay substrates (e.g., NOTCH1 is cNOTCH1sub). Substrate cDNAs were cloned into pCDNA3.1 (Invitrogen, Carlsbad, CA, USA) for expression in H4 cells (ATCC, Manassas, VA).
(§4) H4 cells were cultured in Opti‐mem media (Thermo‐Fisher) supplemented with Hyclone 6% fetal bovine serum (GE, Logan, Utah, USA) and 1% penicillin/streptomycin (Life Technologies, Grand Island, NY, USA). pCDNA3.1 plasmids containing the substrate cDNAs were transfected into H4 cells using FuGENE HD reagent (Madison, WI, USA). Stable cell lines were established using G418 selection. […] Cells and conditioned media were used for WB, IP, and ELISA.
as §1

cNOTCH1‐4sub = test: Average of cell-based IC50s on cNOTCH1-4sub in H4 cells; parameters: species or system human; conditions: read-out: Average IC50s of each GSI on cNOTCH1‐4sub
Experimental: as §2, §3, §4, §1

Row | SMILES | NICD levels (NOTCH1; MDA-MB-231, 100 nM to 12.5 μM, 1 h pretreatment then 5 mM EDTA 5 min) | SPPLs‐catalyzed cleavage of FBA substrate (SPPL2a, SPPL2b, and SPP) | IC50 (cNOTCH1sub) | IC50 (cNOTCH1‐4sub) | NICD levels at 100 nM (NOTCH1) | concentration reducing NICD to background levels or below (NOTCH1; MDA-MB-231)
1 | CC(C)[C@H](O)C(=O)N[C@@H](C)C(=O)N[C@@H]1C(=O)N(C)CCc2ccccc21 [Semagacestat] | reduced NICD concentrations to near‐baseline levels at all concentrations tested | did not show significant inhibition | 7020 pM | 121000 pM |  | 
2 | CN1C(=O)[C@@H](NC(=O)[C@H](CCC(F)(F)F)[C@H](CCC(F)(F)F)C(N)=O)N=C(c2ccccc2)c2ccccc21 [BMS‐906024] |  | efficiently inhibited | 290 pM | 570 pM | reduced NICD to levels equal or lower than baseline | 
3 | O=C(O)CC[C@H]1CC[C@@](c2cc(F)ccc2F)(S(=O)(=O)c2ccc(Cl)cc2)CC1 [MK‐0752] |  | did not show significant inhibition | 87400 pM |  |  | ≥ 0.5 µM
4 | CC(C)(C(=O)NCC(F)(F)C(F)(F)F)C(=O)N[C@@H]1C(=O)Nc2ccccc2-c2ccccc21 [RO4929097] |  | efficiently inhibited | 460 pM | 6480 pM | reduced NICD to levels equal or lower than baseline | 
5 | CCC[C@H](N[C@H]1CCc2cc(F)cc(F)c2C1)C(=O)Nc1cn(C(C)(C)CNCC(C)(C)C)cn1 [PF‐3084014] |  | mild inhibition | 600 pM | 660 pM | reduced NICD to levels equal or lower than baseline | 
